The results in this text go back to patent publication US11026419B2, “Silver- and copper-chelating ionic liquids, polymers, and gels, and uses thereof” (Massachusetts Institute of Technology, priority 2016, dated 2021).

The subject of one data set is HEK cells. Put plainly: Cell viability assay, LDH release. The format is cell-based, human. To be noted: 24 hours treatment, at the higher concentrations tested. On the procedure:
The toxicity of the compounds towards human cells was tested using HEK cell lines (FIG. 5), which were cultured in DMEM medium and 10% Fetal Bovine Serum at 37° C. in 5% CO2. 5×10^4 cells were seeded into 96-well plates 24 hours before treatment. Incremental concentrations of ionic liquids (diluted 2×) were added into the wells for another 24 hours. The release of the cytosolic enzyme lactate dehydrogenase (LDH) was then measured, following the manual of Pierce LDH Cytotoxicity Assay Kit (Thermofisher, Mass., USA). Untreated cells (live cells) and cells treated with lysis buffer for 2 hours (dead cells) were used as the reference for normalization. All experiments were performed in triplicate. […] Experiments were repeated using an MTX assay with the trend in the results matching those of the LDH assay.

A further data set has as its system PA14. Put plainly: Turbidity of PA14 solutions as indication of bacterial growth. To be noted: PA14 solution with 10 uL IL (FIG. 3). The format is cell-based, Pseudomonas aeruginosa.
The subject of data set [1] is Pseudomonas aeruginosa (PA14). The data set can be described thus: Antimicrobial sensitivity, colony forming units (CFU) of PA14. The format is cell-based. To be noted: PA14, compared with control samples (FIG. 2). The source says: Antimicrobial sensitivity experiments used Pseudomonas aeruginosa (PA14, FIG. 2) a gram-negative monoflagellated bacterium. This is a model bacterium for such studies as it is […] and is an opportunistic human pathogen, colonizing immunocompromised patients, such as those with cystic fibrosis, cancer, or AIDS [15].

Regarding “N-butyl(ethylenediaminium) bis(trifluoroethanesulfonyl)amide [[HButylen][Tf2N]]”, the reduced cell viability in the data set with HEK cells is recorded as ~50%.

With “N-hexylethylenediaminium bis(trifluoroethanesulfonyl)amide [[HHex][Tf2N]]”, the reduced cell viability in the data set with HEK cells was ~50%. Further, the “turbidity / bacteria growth” value in the data set on PA14 is listed as “no turbidity”. Further, the “drop in the colony-forming unit (CFU)” value in data set [1] is on record as ~3 orders of magnitude.
